# In patent publication US9708316B2 (BRISTOL-MYERS SQUIBB COMPANY, priority 2014, dated 2017):
# Columns and labels:
# HIS-TGFβR1 T204D = biological target: T1, HIS-TGFβR1 T204D (Homo sapiens, UniProt P36897, T204D); test: HTRF probe-displacement assay, HIS-TGFβR1 T204D; format: binding; conditions: read-out: TGFβR1 (μM) IC50
# T1 sequence (P36897 34-503 T204D): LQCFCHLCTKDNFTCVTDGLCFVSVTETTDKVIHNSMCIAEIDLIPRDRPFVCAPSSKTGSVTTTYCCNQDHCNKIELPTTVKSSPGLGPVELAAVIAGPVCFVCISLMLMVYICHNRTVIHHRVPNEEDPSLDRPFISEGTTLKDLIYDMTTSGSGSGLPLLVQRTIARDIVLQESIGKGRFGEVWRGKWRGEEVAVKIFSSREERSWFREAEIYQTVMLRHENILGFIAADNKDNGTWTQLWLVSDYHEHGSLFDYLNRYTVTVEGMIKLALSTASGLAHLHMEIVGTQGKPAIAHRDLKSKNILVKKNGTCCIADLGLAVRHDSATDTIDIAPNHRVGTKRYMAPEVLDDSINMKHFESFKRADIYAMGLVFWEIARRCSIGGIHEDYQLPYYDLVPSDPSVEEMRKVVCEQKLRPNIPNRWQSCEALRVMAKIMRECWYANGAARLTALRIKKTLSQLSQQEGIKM
# HIS-TGFβR2 WT = HIS-TGFβR2 WT (Homo sapiens, UniProt P37173); test: HTRF probe-displacement assay, HIS-TGFβR2 WT; format: binding
# HIS-TGFβR2 WT, sequence (P37173 23-567): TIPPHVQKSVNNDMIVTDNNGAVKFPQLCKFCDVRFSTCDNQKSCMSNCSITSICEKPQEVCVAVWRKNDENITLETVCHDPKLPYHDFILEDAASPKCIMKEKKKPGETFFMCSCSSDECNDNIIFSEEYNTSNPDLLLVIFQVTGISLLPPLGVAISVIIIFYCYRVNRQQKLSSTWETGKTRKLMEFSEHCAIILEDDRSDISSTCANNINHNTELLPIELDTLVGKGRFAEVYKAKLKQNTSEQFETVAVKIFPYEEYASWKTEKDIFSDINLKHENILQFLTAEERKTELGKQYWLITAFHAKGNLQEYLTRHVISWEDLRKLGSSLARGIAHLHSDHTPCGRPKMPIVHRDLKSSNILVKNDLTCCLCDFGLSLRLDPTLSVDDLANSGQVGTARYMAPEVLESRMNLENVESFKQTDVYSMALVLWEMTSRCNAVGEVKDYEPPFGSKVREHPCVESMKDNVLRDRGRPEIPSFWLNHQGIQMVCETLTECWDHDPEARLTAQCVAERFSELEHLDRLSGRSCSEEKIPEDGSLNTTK
Compound,IC50 (HIS-TGFβR1 T204D),IC50 (HIS-TGFβR2 WT)
"CC(=O)Nc1cc(-c2[nH]c3cc(C)cnc3c2-c2nc(C)cs2)ccn1 [Example 223, N-(4-(6-Methyl-3-(4-methylthiazol-2-yl)-1H-pyrrolo[3,2-b]pyridin-2-yl)pyridin-2-yl)acetamide]",0.0008 µM,0.043 µM
"CC(=O)Nc1cc(-c2[nH]c3cccnc3c2-c2nc(CO)cs2)ccn1 [Example 204, N-(4-(3-(4-(Hydroxymethyl)thiazol-2-yl)-1H-pyrrolo[3,2-b]pyridin-2-yl)pyridin-2-yl)acetamide]",0.0055 µM,0.111 µM
"CC(=O)Nc1cc(-c2[nH]c3c(C(O)C(C)C)ccnc3c2-c2cccc(C(F)F)n2)ccn1 (stereo not drawn) [Example 144, N-(4-{3-[6-(Difluoromethyl)pyridin-2-yl]-7-(1-hydroxy-2-methylpropyl)-1H-pyrrolo[3,2-b]pyridin-2-yl}pyridin-2-yl)acetamide]",0.001 µM,0.361 µM
"CC(=O)Nc1cc(-c2[nH]c3cccnc3c2-c2nc(C(F)F)cs2)ccn1 [Example 200, N-(4-(3-(4-(Difluoromethyl)thiazol-2-yl)-1H-pyrrolo[3,2-b]pyridin-2-yl)pyridin-2-yl)acetamide]",0.0007 µM,0.548 µM
"COc1ccc(-c2c(-c3ccnc(NC(C)=O)c3)[nH]c3cc(OC)cnc23)nc1 [Example 284, N-(4-(6-Methoxy-3-(5-methoxypyridin-2-yl)-1H-pyrrolo[3,2-b]pyridin-2-yl)pyridin-2-yl)acetamide]",0.003 µM,5.22 µM
"CC(=O)Nc1cc(-c2[nH]c3c(C(C)O)ccnc3c2-c2cccc(F)n2)ccn1 (stereo not drawn) [Example 262, N-(4-(3-(6-Fluoropyridin-2-yl)-7-(1-hydroxyethyl)-1H-pyrrolo[3,2-b]pyridin-2-yl)pyridin-2-yl)acetamide]",0.002 µM,0.267 µM
"CC(=O)Nc1cc(-c2[nH]c3cccnc3c2-c2ccc3cnccc3c2)ccn1 [Example 17, N-{4-[3-(Isoquinolin-6-yl)-1H-pyrrolo[3,2-b]pyridin-2-yl]pyridin-2-yl}acetamide]",0.014 µM,> 15 µM
"COc1ccnc2c(-c3nc(C)cs3)c(-c3ccnc(NC(C)=O)c3)[nH]c12 [Example 234, N-(4-(7-Methoxy-3-(4-methylthiazol-2-yl)-1H-pyrrolo[3,2-b]pyridin-2-yl)pyridin-2-yl)acetamide]",0.0016 µM,0.572 µM
"COc1cnc2c(-c3ccc(Cl)cn3)c(-c3ccnc(NC(C)=O)c3)[nH]c2c1 [Example 50, N-{4-[3-(5-Chloropyridin-2-yl)-6-methoxy-1H-pyrrolo[3,2-b]pyridin-2-yl]pyridin-2-yl}acetamide]",0.003 µM,6.57 µM
"CC(=O)Nc1cc(-c2[nH]c3c(C#N)ccnc3c2-c2nc(C)cs2)ccn1 [Example 240, N-(4-(7-Cyano-3-(4-methylthiazol-2-yl)-1H-pyrrolo[3,2-b]pyridin-2-yl)pyridin-2-yl)acetamide]",0.594 µM,> 15 µM
"COc1cnc2c(-c3csc(C)n3)c(-c3ccnc(NC(C)=O)c3)[nH]c2c1 [Example 210, N-(4-(6-Methoxy-3-(2-methylthiazol-4-yl)-1H-pyrrolo[3,2-b]pyridin-2-yl)pyridin-2-yl)acetamide]",0.0025 µM,0.815 µM
"COc1cnc2c(-c3cccc(C(F)F)n3)c(-c3ccnc(NC(=O)CN(C)C)c3)[nH]c2c1 [Example 117, N-(4-{3-[6-(Difluoromethyl)pyridin-2-yl]-6-methoxy-1H-pyrrolo[3,2-b]pyridin-2-yl}pyridin-2-yl)-2-(dimethylamino)acetamide]",0.003 µM,11.3 µM
"CC(=O)Nc1cc(-c2[nH]c3c(C4CCOCC4)ccnc3c2-c2cccc(C(F)F)n2)ccn1 [Example 135, N-(4-{3-[6-(Difluoromethyl)pyridin-2-yl]-7-(oxan-4-yl)-1H-pyrrolo[3,2-b]pyridin-2-yl}pyridin-2-yl)acetamide]",0.003 µM,> 15 µM
"COc1ccc(-c2c(-c3ccnc(N)c3)[nH]c3cccnc23)cn1 [Example 52, 4-[3-(6-Methoxypyridin-3-yl)-1H-pyrrolo[3,2-b]pyridin-2-yl]pyridin-2-amine]",0.041 µM,0.45 µM
"COc1ncc(-c2c(-c3ccnc(NC(C)=O)c3)[nH]c3cccnc23)cn1 [Example 27, N-{4-[3-(2-Methoxypyrimidin-5-yl)-1H-pyrrolo[3,2-b]pyridin-2-yl]pyridin-2-yl}acetamide]",0.72 µM,> 15 µM
"COc1ccc(-c2c(-c3ccnc(NC(C)=O)c3)[nH]c3cc(Cl)cnc23)nc1Cl [Example 180, N-(4-(6-Chloro-3-(6-chloro-5-methoxypyridin-2-yl)-1H-pyrrolo[3,2-b]pyridin-2-yl)pyridin-2-yl)acetamide]",0.0274 µM,> 15 µM
"COc1ccc(-c2c(-c3ccnc(NC(C)=O)c3)[nH]c3cc(C#N)cnc23)cn1 [Example 78, N-(4-(6-Cyano-3-(6-methoxypyridin-3-yl)-1H-pyrrolo[3,2-b]pyridin-2-yl)pyridin-2-yl)acetamide]",0.003 µM,0.16 µM
"CC(=O)Nc1cc(-c2[nH]c3c(CCO)ccnc3c2-c2cccc(C(F)F)n2)ccn1 [Example 155, N-(4-{3-[6-(Difluoromethyl)pyridin-2-yl]-7-(2-hydroxyethyl)-1H-pyrrolo[3,2-b]pyridin-2-yl}pyridin-2-yl)acetamide]",0.001 µM,3.47 µM
"CC(=O)Nc1cc(-c2[nH]c3c(C(C)C)ccnc3c2-c2cccc(C(F)F)n2)ccn1 [Example 133, N-(4-{3-[6-(Difluoromethyl)pyridin-2-yl]-7-(propan-2-yl)-1H-pyrrolo[3,2-b]pyridin-2-yl}pyridin-2-yl)acetamide]",0.001 µM,> 15 µM
"COC(=O)c1ccnc2c(-c3ccc(F)cn3)c(-c3ccnc(NC(C)=O)c3)[nH]c12 [Example 71, Methyl 2-(2-acetamidopyridin-4-yl)-3-(5-fluoropyridin-2-yl)-1H-pyrrolo[3,2-b]pyridine-7-carboxylate]",0.27 µM,4.38 µM
"[2H]C([2H])([2H])C(O)c1ccnc2c(-c3cccc(C(F)F)n3)c(-c3ccnc(NC(C)=O)c3)[nH]c12 (stereo not drawn) [Example 145, N-(4-{3-[6-(Difluoromethyl)pyridin-2-yl]-7-[1-hydroxy(2,2,2-2H)ethyl]-1H-pyrrolo[3,2-b]pyridin-2-yl}pyridin-2-yl)acetamide]",0.002 µM,2.94 µM
"CC(=O)Nc1cc(-c2[nH]c3c(C(C)O)ccnc3c2-c2cccc(C(F)F)n2)ccn1 (stereo not drawn) [Example 143, N-(4-{3-[6-(Difluoromethyl)pyridin-2-yl]-7-(1-hydroxyethyl)-1H-pyrrolo[3,2-b]pyridin-2-yl}pyridin-2-yl)acetamide]",0.001 µM,2.53 µM
"COc1ccc(-c2c(-c3ccnc(NC(C)=O)c3)[nH]c3cc(Cl)cnc23)nc1 [Example 47, N-{4-[6-Chloro-3-(5-methoxypyridin-2-yl)-1H-pyrrolo[3,2-b]pyridin-2-yl]pyridin-2-yl}acetamide]",0.004 µM,> 15 µM
"COc1cnc2c(-c3cccc(C)n3)c(-c3ccnc(NC(C)=O)c3)[nH]c2c1 [Example 283, N-(4-(6-Methoxy-3-(6-methylpyridin-2-yl)-1H-pyrrolo[3,2-b]pyridin-2-yl)pyridin-2-yl)acetamide]",0.001 µM,1.12 µM
